Results published in patent US9598459B2, “Pharmaceutical compositions and methods” (priority 2015, dated 2017).
“And” between values parts separate entries of the source, which are not always exact repeats. Equal entries are not always repeated.

Columns and labels:
[1] = system: Hepatitis C virus (replicon) clone B (genotype 1a); assay: HCV genotype 1a HuH-7 clone B subgenomic replicon RNA replication; assay type: cell-based, human hepatitis C virus; conditions: 10 μM
MNV MNV-1 = assay: Murine norovirus (MNV-1) antiviral screen in RAW267.4; assay type: cell-based; conditions: RAW267.4, Neutral Red (Cytopathology), MNV-1, RAW267.4, Example 11
[2] = Toxicity in RAW267.4 cells (neutral red); conditions: mouse, RAW267.4 cells, CC50, Neutral Red (Toxicity), Example 11
in vitro [3] = conditions: human
[4] = system: cellular ribosomal RNA (rRNA) synthesis; assay: Cellular ribosomal RNA synthesis in HCV replicon cells (TaqMan RT-qPCR); assay type: cell-based; conditions: 10 μM
[5] = system: Norwalk virus (replicon) GT1; assay: Norwalk virus replicon (GT1) in HG23, RNA hybridization; assay type: cell-based, Norwalk virus (human norovirus); conditions: Norwalk virus
in vitro [6] = conditions: human; remark: listed apart in the source
in vitro [7] = conditions: African green monkey, CC50
[8] = Cytotoxicity control on HepG2 (CellTiter MTS); conditions: human, HepG2 cells
Cytotoxicity on CCRF-CEM = conditions: human, CCRF-CEM cells, CC50, Cytotoxicity control, CCRF-CEM, CellTiter MTS
OM-10.1 cells = assay: Toxicity in OM-10.1 (Cell Titer 96); conditions: for TOXICITY VALUES (Cell Titer 96): SAMPLE 1-3, MEAN
[9] = Toxicity in OM-10.1 (Cell Titer 96); conditions: human, OM-10.1 cells
HIV-1 LAV = assay: Inhibition of inducible HIV-1 LAV replication in OM-10.1 (RT values); assay type: cell-based, human immunodeficiency virus type 1; conditions: for RT Values: SAMPLE 1-3, MEAN
[10] = GT1, HG23, Norwalk virus (replicon) GT1, HG23, Table 10
[11] = Human immunodeficiency virus 1, OM-10.1

C[C@@]1(O)[C@H](O)[C@@H](CO)O[C@H]1n1ccc(N)nc1=O [2′-C-methylcytidine (RS-446), 2′-C-methylcytidine, reference compound]
TaqMan RT-qPCR threshold cycle value difference (ΔCT) of HCV replicon RNA synthesis [1]: 5.72 | Inhibition of HCV replicon RNA syntheses at the fixed concentration of 10 μM of the test compound ([1]; HuH-7 clone B): 98.08% | EC90 (MNV MNV-1): 3.1 µM | EC50 (MNV MNV-1; unit from Conc. Range): 1000 nM | CC50 [2]: > 30 µM | CC50 (in vitro [3]): > 300 µM | Inhibition of cellular ribosomal RNA (rRNA) synthesis at the fixed concentration of 10 μM of the test compound [4]: 31.09% | EC50 [5, 10]: 6.9 µM | EC90 [5, 10]: 18 µM | EC90 ([5]; GT1, HG23, RNA Hybridization (Replicon), NV GT1, HG23, Example 10): 19 µM | EC50 ([5]; GT1, HG23, RNA Hybridization (Replicon), NV GT1, HG23, Example 10, unit from Conc. Range): 6.4 µM

C[C@@H]1C[C@@H]([C@H](O)CC2CC(=O)NC(=O)C2)C(=O)[C@@H](C)C1 [Cycloheximide]
CC50 (in vitro [6]): 500 nM | CC50 (in vitro [7]): 200 nM | CC50 [8]: 600 nM | CC50 (Cytotoxicity on CCRF-CEM): 100 nM

O=c1c2ccccc2n2nnc3ccc(NCCCN4CCN(CCCNc5ccc6nnn7c8ccccc8c(=O)c5c67)CC4)c1c32 [Temacrazine (TMZ)]
% CC (OM-10.1 cells; 0.10 nM): 108.4% | TOXICITY VALUES (Cell Titer 96) (OM-10.1 cells; 0.10 nM): 0.727 O.D. @ 490/650 nm and 0.895 O.D. @ 490/650 nm and 0.621 O.D. @ 490/650 nm | % CC (OM-10.1 cells; 1.00 nM): 109.3% | TOXICITY VALUES (Cell Titer 96) (OM-10.1 cells; 1.00 nM): 0.781 O.D. @ 490/650 nm and 0.744 O.D. @ 490/650 nm and 0.736 O.D. @ 490/650 nm | % CC (OM-10.1 cells; 3.16 nM): 126.3% | TOXICITY VALUES (Cell Titer 96) (OM-10.1 cells; 3.16 nM): 0.830 O.D. @ 490/650 nm and 0.933 O.D. @ 490/650 nm and 0.849 O.D. @ 490/650 nm | % CC (OM-10.1 cells; 10.0 nM): 137.0% | TOXICITY VALUES (Cell Titer 96) (OM-10.1 cells; 10.0 nM): 0.882 O.D. @ 490/650 nm and 0.999 O.D. @ 490/650 nm and 0.954 O.D. @ 490/650 nm | % CC (OM-10.1 cells; 31.6 nM): 138.1% | TOXICITY VALUES (Cell Titer 96) (OM-10.1 cells; 31.6 nM): 0.967 O.D. @ 490/650 nm and 0.902 O.D. @ 490/650 nm and 0.988 O.D. @ 490/650 nm | % CC (OM-10.1 cells; 100 nM): 138.2% | TOXICITY VALUES (Cell Titer 96) (OM-10.1 cells; 100 nM): 0.917 O.D. @ 490/650 nm and 0.990 O.D. @ 490/650 nm and 0.952 O.D. @ 490/650 nm | % CC (OM-10.1 cells; 316 nM): 136.7% | TOXICITY VALUES (Cell Titer 96) (OM-10.1 cells; 316 nM): 0.977 O.D. @ 490/650 nm and 1.037 O.D. @ 490/650 nm and 0.813 O.D. @ 490/650 nm | % CC (OM-10.1 cells; 1000 nM): 129.9% | TOXICITY VALUES (Cell Titer 96) (OM-10.1 cells; 1000 nM): 0.897 O.D. @ 490/650 nm and 0.910 O.D. @ 490/650 nm and 0.879 O.D. @ 490/650 nm | TC 90% (OM-10.1 cells; OM-10.1): >1000 nM | TC 95% (OM-10.1 cells; OM-10.1): >1000 nM | CC50 (OM-10.1 cells; read-out: TC 50%, OM-10.1): > 1000 nM | CC50 [9]: > 1000 nM | % VC (HIV-1 LAV; 0.10 nM): 96.8% | RT Values (HIV-1 LAV; 0.10 nM): 30380 cpm and 31745 cpm and 26409 cpm | % VC (HIV-1 LAV; 1.00 nM): 87.9% | RT Values (HIV-1 LAV; 1.00 nM): 32770 cpm and 23041 cpm and 24504 cpm | % VC (HIV-1 LAV; 3.16 nM): 92.4% | RT Values (HIV-1 LAV; 3.16 nM): 30588 cpm and 25259 cpm and 28648 cpm | % VC (HIV-1 LAV; 10.0 nM): 99.6% | RT Values (HIV-1 LAV; 10.0 nM): 27453 cpm and 31623 cpm and 31990 cpm | % VC (HIV-1 LAV; 31.6 nM): 87.0% | RT Values (HIV-1 LAV; 31.6 nM): 25515 cpm and 24677 cpm and 29321 cpm | % VC (HIV-1 LAV; 100 nM): 37.5% | % VC (HIV-1 LAV; 316 nM): 22.7% | RT Values (HIV-1 LAV; 316 nM): 6512 cpm and 5272 cpm and 8986 cpm | % VC (HIV-1 LAV; 1000 nM): 2.0% | EC50 (HIV-1 LAV; Human immunodeficiency virus 1): 70 nM | EC90 (HIV-1 LAV; Human immunodeficiency virus 1): 640 nM | IC50 (HIV-1 LAV; [11]): 74.8 nM | IC90 (HIV-1 LAV; [11]): 641 nM | IC 95% (HIV-1 LAV; OM-10.1): 847 nM | Selectivity Index (CC50/EC50) (HIV-1 LAV; OM-10.1, Table 7): >0.13
